The source of these data is patent US20150031628A1, “METHODS AND FORMULATIONS FOR CONVERTING INTRAVENOUS AND INJECTABLE DRUGS INTO ORAL DOSAGE FORMS” (ZOMANEX, LLC, priority 2007, published 2015).

Structures are written as SMILES.

The term AUC(0-inf) denotes total exposure, with the tail of the curve extrapolated. A high value points to high exposure.

Data set [1] can be described thus: in vivo. As to conditions: female, beagle, dog, plasma, po, 20 mg.
Protocol: (§1) To these ends, pharmacokinetic studies were performed in five naïve, female beagle dogs with each drug dosed in a formulation system using a crossover design, with a one week wash out period between doses. […] Following a 16-hour fast, the animals were fed a small amount (approximately ¼ can) of Hill/s Science Diet A/D and thirty minutes later each animal was orally dosed with one of the formulations of the appropriate test article. Blood samples were drawn 0.5, 1.0, 1.5, 3.0, 4.5, 8.0, and 24 hours after dosing.
The liquid was then dosed to the animal with a syringe. Water was then added to the syringe and the washing was administered to the dog.
After dosing with each formulation, all the blood samples were collected in a sodium heparin anticoagulant tube, processed to plasma and frozen at −80° C. Plasma Paclitaxel concentration at each time point for each of the five dogs was determined by high throughput liquid chromatographic-tandem mass spectrometric quantification at Bioanalytical Systems (McMinnville, Oreg.). […] To quantitate the absorption changes, the area under the curve (AUC0→∞) was calculated for each formulation system and the results are shown in the Table below.
Data set [2] is described as follows: in vivo. The note with it: female, beagle, dog, plasma, po, 20 mg. The source holds these as a separate data set.
Protocol: as §1
Solid Preparation—Paclitaxel. Solid Paclitaxel (300 mg), soy sterols (300 mg) and lysolecithin (900 mg) were added to a 30 mL glass tube and chloroform (3.0 ml) was added. After the solids were dissolved with gentle heating in a 60° C. water bath, the solvent was removed under a stream of nitrogen. The mass was then pumped on under vacuum to remove residual solvent. Addition of water (15 mL) softened the solid mass and the mixture was then sonicated in an ice bath for two minutes on 40% power, followed by two minutes sonication on 50% power and then two minutes sonication on 60% power. […]
Absorption Experiment With Solid Formulations. After dosing with each formulation, all the blood samples were processed and analyzed as described for the liquid formulations.

`CC(=O)O[C@H]1C(=O)[C@@]2(C)[C@H]([C@H](OC(=O)c3ccccc3)[C@]3(O)C[C@H](OC(=O)[C@H](O)[C@@H](NC(=O)c4ccccc4)c4ccccc4)C(C)=C1C3(C)C)[C@]1(OC(C)=O)CO[C@@H]1C[C@@H]2O` [Unformulated Paclitaxel, Paclitaxel]: the AUC(0-inf) in the data set “in vivo [1]” and in the data set “in vivo [2]” was 28.9 ± 7.1 ng·h/mL each time.
